Source: US9296716B2, “Androgen receptor ligands” (THE PROVOST, FELLOWS, FOUNDATION SCHOLARS, & THE OTHER …, priority 2011, dated 2016)
Positions count from the first letter of the chain named. Where two headings read alike, the source gives them in different places.

Experiments:
Format in all cases: biochemical
[1] = molecular target: T1, Glucocorticoid Receptor (GR) LBD (Homo sapiens, UniProt P04150); assay: TR-FRET SRC1-4 coactivator recruitment assay, GR LBD; settings: Dexamethasone = EC80
T1 construct: purchased Invitrogen PV4683
T1 sequence (P04150 524-758 limits assumed): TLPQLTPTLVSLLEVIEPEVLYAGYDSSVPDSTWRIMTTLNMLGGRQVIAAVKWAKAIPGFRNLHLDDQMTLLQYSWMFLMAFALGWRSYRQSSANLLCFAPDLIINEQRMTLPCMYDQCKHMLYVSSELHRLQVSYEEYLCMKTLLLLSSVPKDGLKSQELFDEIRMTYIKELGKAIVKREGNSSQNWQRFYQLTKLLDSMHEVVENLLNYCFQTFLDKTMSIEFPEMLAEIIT
Description: (§1) Compound binding affinities for Progesterone Receptor (PR), Glucocorticoid Receptor (GR), Estrogen Receptor alpha and Estrogen Receptor beta were determined using TR-FRET (Table 2).
Dexamethasone bound receptor recruitment of the fluorescently labelled SCR1-4 coactivator was unimpaired at screening concentrations up to 100 μM for all the diarylhydrazides evaluated (FIG. 5).
(§2) Lanthascreen TR-FRET AR Coactivator Assay kit (Invitrogen, cat no. PV4381) was used to screen for potential coactivator disruptors.
(§3) TR FRET values were calculated at 10 flashes per well, using a delay time of 100 μs and integration time 200 μs as recommended by the Invitrogen assay guidelines. […] A serial dilution of compounds was firstly prepared in 100×DMSO (Sigma-Aldrich) starting from the maximum desired concentration to achieve a 12 point range concentration using 96-well polypropylene plates (Nalgene Nunc, Rochester, N.Y.). Each 100× solution was diluted to 2× concentration with TR-FRET co-regulator buffer A (Invitrogen proprietary buffer), yielding a final concentration of 1% DMSO in each well.
(§4) D11-FxxLF and Tb antibody were premixed in light protecting vials prior to use. A final concentration of DTT 5 mM was used in the assay buffer in order to prevent protein degradation. All plates (agonist and antagonist mode) were incubated between 2 and 4 hours at room temperature protected from light prior to TR-FRET measurement. […] Data was fitted using the sigmoidal dose response (variable slope) available from Graphpad Prism 5. Y=Bottom+(Top-Bottom)/(1+10^((Log IC50−X)*HillSlope))
(§5) The same procedure was used for AR T877A (Invitrogen cat no. PV4667), PR (Invitrogen cat no. PV4666), ER-α (Invitrogen cat no. PV4544), ER-β (Invitrogen cat no. PV4541) and GR (Invitrogen cat no. PV4683). The assay was adapted to exclude possible non-specific aggregation mechanism of inhibition by adding very low concentration of detergent Triton X-100 (0.001%) to the assay buffer following the Shoichet review guidelines [Shoichet BK (2006) Screening in a spirit haunted world. Drug Discov Today 11:607-615].

[2] = molecular target: T2, Progesterone Receptor (PR) LBD (Homo sapiens, UniProt P06401); assay: TR-FRET SRC1-4 coactivator recruitment assay, PR LBD; settings: Progesterone = EC80
T2 construct: purchased Invitrogen PV4666
T2 sequence (P06401 679-913 limits assumed): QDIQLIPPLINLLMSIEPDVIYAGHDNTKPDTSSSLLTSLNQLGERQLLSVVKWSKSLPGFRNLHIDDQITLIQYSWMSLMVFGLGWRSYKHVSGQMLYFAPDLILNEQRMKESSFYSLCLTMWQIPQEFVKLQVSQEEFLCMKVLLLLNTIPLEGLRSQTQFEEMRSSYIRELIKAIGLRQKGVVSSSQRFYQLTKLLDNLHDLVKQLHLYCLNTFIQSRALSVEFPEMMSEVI
Description: as §1, §2, §3, §4, §5

[3] = molecular target: T3, AR-LBD T877A mutant (Homo sapiens, UniProt P10275, T878A); assay: TR-FRET coactivator assay, AR T877A mutant; settings: D11-FxxLF peptide, DHT = EC80
T3 construct: purchased Invitrogen PV4667
T3 sequence (P10275 669-900 T878A): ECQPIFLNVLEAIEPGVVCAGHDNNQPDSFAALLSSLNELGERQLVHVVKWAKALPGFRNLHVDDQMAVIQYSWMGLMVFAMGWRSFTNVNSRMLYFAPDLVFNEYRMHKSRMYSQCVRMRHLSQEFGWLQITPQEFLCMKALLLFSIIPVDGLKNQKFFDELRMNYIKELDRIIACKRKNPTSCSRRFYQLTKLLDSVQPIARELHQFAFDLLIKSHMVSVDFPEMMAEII

[4] = molecular target: T4, AR-LBD wt (Homo sapiens, UniProt P10275); assay: Lanthascreen TR-FRET AR coactivator (D11-FxxLF) assay, AR-LBD wt; settings: for IC50: TR-FRET, D11-FxxLF peptide, DHT = EC80
T4 sequence (P10275 669-900 limits assumed): T3 sequence (P10275 669-900 T878A) with A210T

**Q.** COc1cc(/C=N/NC(=O)c2cc3c(ccc4ccccc43)o2)cc(OC)c1O [MDG506] was tested. Which “effect on SRC1-4 recruitment by GR LBD” value ([1]; 100 μM to 12.5 μM or single point 100 μM) did it give?
**A.** do not affect

**Q.** What about the IC50 ([1]; TR-FRET, ± SEM (n = 6), read-out: NR LBDs IC50 (μM) GR) of the same compound?
**A.** > 100 µM

**Q.** And the “effect on PR recruitment of fluorescent labelled SRC1-4” value ([2]; 100 μM to 45 nM)?
**A.** partially inhibit

**Q.** What about the IC50 ([2]; TR-FRET, ± SEM (n = 6), read-out: NR LBDs IC50 (μM) PR) of the same compound?
**A.** 27.7 ± 7.3 µM

**Q.** What about the IC50 [3] of the same compound?
**A.** 33.2 ± 5.9 µM

**Q.** And the “type of AR antagonism (full / partial)” value ([4]; TR-FRET in agonist and antagonist mode)?
**A.** full AR antagonists

**Q.** And the IC50 ([4]; read-out: AR (wt))?
**A.** 26.3 ± 3.8 µM

**Q.** What about the IC50 ([4]; read-out: Activity (AR wt TR-FRET)) of the same compound?
**A.** 26.3 ± 3.8 µM
